Data taken from patent US20230255943A1, “MMP-9 AND MMP-12 INHIBITION FOR TREATING SPINAL CORD INJURY OR RELATED INJURY TO NEUROLOGICAL TISSUE” (The University of Birmingham, priority 2020, published 2023).
pIC50: −log10 of the molar value. “And” between values parts separate entries of the source, which are not always exact repeats. Equal entries are not always repeated. Structures can show the parent of a compound that is named as a salt.

Legend:
[1] = molecular target: human MMP-12 (Homo sapiens, UniProt P39900); test: Inhibition of human MMP-12 (IC50); type: biochemical
[2] = molecular target: rat MMP-12 (Rattus norvegicus, UniProt Q63341); test: Inhibition of rat MMP-12; type: biochemical
[3] = molecular target: human MMP-9 (Homo sapiens, UniProt P14780); test: Inhibition of human MMP-9 (IC50); type: biochemical
[4] = tested on: J774A.1, RAW 264.7 and primary mouse peritoneal macrophages; test: Transwell migration assay of macrophages; type: cell-based; conditions: J774A.1 and RAW 264.7, 3 h
Procedure: J774A.1 cells (#TIB-67; ATCC, Middlesex, UK) were cultured in DMEM supplemented with 10% FBS, 100 U/ml penicillin, 100 μg/ml streptomycin, and 0.25 μg amphotericin B. Cells were seeded in T75 tissue-culture flasks and maintained at 37° C. and 5% CO2. RAW 264.7 cells (#TIB-71; ATCC) were maintained in DMEM containing 10% FBS.
Resident peritoneal cells were harvested from adult C57BL/6 mice (6-8 weeks old) by injection of 10 ml of PBS using a 21G needle into the peritoneal cavity and harvesting the cell suspension, as described previously (Rosas M, Davies L C, Giles P J, Liao C T, Kharfan B, Stone T C, et aL. The transcription factor Gata6 links tissue macrophage phenotype and proliferative renewal. Science 2014; 344(6184): 645-8). Peritoneal cells were then centrifuged at 100×g for 10 min and the cell pellet resuspended in DMEM/F12 medium. Cell were incubated at 37° C., for 2 h and non-adherent cells were removed by gentle washing. Cells were expanded in DMEM/F12 medium containing 10% FBS. For migration assays, cells were grown in RPMI containing 0.02% BSA for 24 h to obtain quiescent cells prior to using them in Transwell migration assays as described below.
Migration assays were performed with J774A.1, RAW 264.7 and primary mouse peritoneal macrophages in 6.5 mm Transwell plates (ThermoFisher) with 8 μm pore inserts, as described previously (Green et al., 2012). Briefly, inserts were coated with rat tail type I collagen and 1×10^5 cells (J774A.1, RAW 264.7 or primary mouse macrophages) were resuspended in chemotaxis buffer (RMPI 1640 plus 0.02% BSA, (termed RPMI from herein)) and added to the upper chamber and incubated with migration medium, with or without known chemotactic factors MCP-1 (100 ng/ml) and PMA (100 nM), or AZD1236, GM6001, SD2590 and MMP-9 Inhibitor I (all used at 1, 10, 100, 1000 ng/ml) added to the lower chamber. Cells were allowed to migrate through the insert membrane for 3 h at 37° C., before washing inserts with PBS. Non-migrating cells remaining on the upper surface were removed with a cotton swab whilst the migrated cells on the insert were fixed, stained with Diff-Quick (#26096, Electron Microscopy Science, Hatfield, UK), and mounted on glass slides. Migration was measured visually by counting using a light microscope at 40× magnification. The mean number of cells in 10 random fields were calculated for each treatment by an experimenter masked to the treatment conditions. A migration index was calculated by dividing the number of cells that migrated in response to the chemokine by the number of cells that migrated randomly (RPMI medium) with a reference index>1, indicating chemotaxis.

[5] = tested on: DC injury; test: Example 2: spinal cord water content as measure of injury-induced oedema; conditions: in vivo
Procedure: The lesion site+3 mm either side for mice and the lesion site+5 mm either side for the rat DC model were dissected out and the water content of the spinal cord (as a measure of oedema) was determined at 3 days after DC and CC SCI, as described previously (S. Li, C. H. Tator, Effects of MK801 on evoked potentials, spinal cord blood flow and cord edema in acute spinal cord injury in rats. Spinal Cord 37, 820-832 (1999)). Spinal cords containing the lesion site were weighed on aluminium foil, dried at 105° C. for 24 hr, and re-weighed. The percent water content was calculated as: water content (%)=[(wet weight-dry weight)/wet weight]×100%.
Using similar techniques to those described in Example 1, the water content in the spinal cord as a measure of injury-induced oedema was determined for both AZD1236 & AZD3342 (see FIG. 20).

[6] = molecular target: rat MMP-9 (Rattus norvegicus, UniProt P50282); test: Inhibition of rat MMP-9; type: biochemical
Chain of rat MMP-9 (P50282 108-708): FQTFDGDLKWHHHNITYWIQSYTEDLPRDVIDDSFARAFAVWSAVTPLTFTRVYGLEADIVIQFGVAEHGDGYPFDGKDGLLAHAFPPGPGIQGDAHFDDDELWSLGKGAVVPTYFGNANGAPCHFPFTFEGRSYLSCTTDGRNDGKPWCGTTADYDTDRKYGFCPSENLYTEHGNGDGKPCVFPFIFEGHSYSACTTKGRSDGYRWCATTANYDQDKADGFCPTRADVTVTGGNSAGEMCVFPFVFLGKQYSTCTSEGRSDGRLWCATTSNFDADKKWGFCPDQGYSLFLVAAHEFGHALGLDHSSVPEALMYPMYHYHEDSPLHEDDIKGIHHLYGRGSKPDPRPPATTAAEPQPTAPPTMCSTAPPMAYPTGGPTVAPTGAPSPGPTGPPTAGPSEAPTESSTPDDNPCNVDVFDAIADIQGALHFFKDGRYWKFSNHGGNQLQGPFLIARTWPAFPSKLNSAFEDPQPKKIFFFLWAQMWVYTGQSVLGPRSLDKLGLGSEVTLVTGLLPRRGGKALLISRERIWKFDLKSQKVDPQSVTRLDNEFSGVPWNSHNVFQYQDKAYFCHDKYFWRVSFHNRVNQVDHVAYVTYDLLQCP

Chain of human MMP-12 (P39900 106-470): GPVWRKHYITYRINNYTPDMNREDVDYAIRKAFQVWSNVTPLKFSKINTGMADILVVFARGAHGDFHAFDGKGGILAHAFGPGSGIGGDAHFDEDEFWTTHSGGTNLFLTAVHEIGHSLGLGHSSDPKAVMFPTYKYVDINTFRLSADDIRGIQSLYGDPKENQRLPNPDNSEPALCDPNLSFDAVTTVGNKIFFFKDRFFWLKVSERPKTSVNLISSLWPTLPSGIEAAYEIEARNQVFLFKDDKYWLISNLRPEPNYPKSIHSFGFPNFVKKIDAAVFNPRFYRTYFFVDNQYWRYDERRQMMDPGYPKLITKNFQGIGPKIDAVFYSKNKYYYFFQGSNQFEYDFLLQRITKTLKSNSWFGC
Chain of rat MMP-12 (Q63341 102-465): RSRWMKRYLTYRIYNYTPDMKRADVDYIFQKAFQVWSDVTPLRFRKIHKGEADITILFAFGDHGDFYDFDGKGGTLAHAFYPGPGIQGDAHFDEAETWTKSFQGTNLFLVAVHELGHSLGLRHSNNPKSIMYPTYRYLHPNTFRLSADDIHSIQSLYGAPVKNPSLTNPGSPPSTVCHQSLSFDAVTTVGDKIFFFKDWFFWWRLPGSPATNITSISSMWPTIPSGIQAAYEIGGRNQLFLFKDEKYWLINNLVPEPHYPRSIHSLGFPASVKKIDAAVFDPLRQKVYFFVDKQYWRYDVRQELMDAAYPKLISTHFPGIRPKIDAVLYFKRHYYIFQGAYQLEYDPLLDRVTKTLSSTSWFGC
Chain of human MMP-9 (P14780 94-707): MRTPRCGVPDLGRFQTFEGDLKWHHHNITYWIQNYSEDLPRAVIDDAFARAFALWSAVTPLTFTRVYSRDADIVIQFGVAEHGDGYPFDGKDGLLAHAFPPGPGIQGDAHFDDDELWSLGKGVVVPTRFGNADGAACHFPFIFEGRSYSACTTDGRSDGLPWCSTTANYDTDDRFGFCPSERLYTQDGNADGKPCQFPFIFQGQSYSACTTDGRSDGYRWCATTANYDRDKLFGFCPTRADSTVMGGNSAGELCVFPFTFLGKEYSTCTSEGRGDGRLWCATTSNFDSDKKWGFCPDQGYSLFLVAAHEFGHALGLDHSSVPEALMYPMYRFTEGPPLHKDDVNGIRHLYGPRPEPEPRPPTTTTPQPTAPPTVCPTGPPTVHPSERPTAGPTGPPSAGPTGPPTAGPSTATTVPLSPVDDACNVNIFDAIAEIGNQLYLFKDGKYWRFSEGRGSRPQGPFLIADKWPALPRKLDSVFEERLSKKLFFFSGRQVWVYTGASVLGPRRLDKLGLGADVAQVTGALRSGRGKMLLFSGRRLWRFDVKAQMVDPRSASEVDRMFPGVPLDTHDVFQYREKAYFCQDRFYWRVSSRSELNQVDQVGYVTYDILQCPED

Row | pIC50 ([2]; read-out: IC50 against rat MMP-12) | pIC50 ([6]; read-out: IC50 against rat MMP-9) | Structure (SMILES) | pIC50 [1] | activity against rat MMP-12 [2] | pIC50 [3] | macrophage migration (migration index, chemotaxis) [4] | DC injury-induced increase in water content (FIG. 20) [5] | activity against rat MMP-9 [6]
1 |  |  | C[C@]1(CS(=O)(=O)N2CC=C(C#Cc3cnc(C4CC4)nc3)CC2)NC(=O)NC1=O [AZD1236] | 8.21 | not active | 8.35 | no effect on chemotaxis | completely suppressed | not active
2 |  |  | CCN(CC)Cc1cc(C)c(N(Cc2ccccc2)S(=O)(=O)c2ccc(OC)cc2)c(C(=O)NO)c1 [MMP-9 Inhibitor I, reference compound] |  |  |  | not affected |  | 
3 |  |  | CNC(=O)[C@H](Cc1c[nH]c2ccccc12)NC(=O)[C@@H](CC(=O)NO)CC(C)C [GM6001, (2R)—N^4-Hydroxy-N^1-[(1S)-1-(1H-indol-3-ylmethyl)-2-(methylamino)-2-oxoethyl]-2-(2-methylpropyl)butanediamide, reference compound] |  |  |  | not affected |  | 
4 |  |  | COCCN1CCC(C(=O)NO)(S(=O)(=O)c2ccc(Oc3ccc(OC(F)(F)F)cc3)cc2)CC1 [SD2590, N-Hydroxy-1-(2-methoxyethyl)-4-[4-[4-(trifluoromethoxy)phenoxy]phenyl]sulfonyl]-4-piperidinecarboxamide hydrochloride, reference compound] |  |  |  | not affected |  | 
5 | 7.46 | 6.93 | C[C@]1(CS(=O)(=O)N2CCC(Oc3ccc(Cl)cn3)CC2)NC(=O)NC1=O [AZD3342, (5S)-5-[4-(5-chloro-pyridin-2-yloxy)-piperidine-1-sulfonylmethyl]-5-methylimidazolidine-2,4-dione] | 8.22 and 8.23 |  | 8.00 |  | completely suppressed | 
